Assay results reported in patent USRE42274E1, “Cyclic peptide CXCR4 antagonists” (Eli Lilly and Company, priority 2007, dated 2011).
Where a name gives a salt, the structure may show the parent alone. One block for each compound: values may come before it. Numbered stars: 1 amine (or outer) side, 2 acyl side, 3 side chain; on linkers, the order of the positions; unused ones are H or OH. Bridge positions count the residues as written; N and C are the ends. Square brackets hold non-standard residues; d marks the D form. Peptide text beside a SMILES is read from it. * marks the point of attachment. Lys(iPr-d6) = deuterated Lys(iPr), [2H]C([2H])([2H])C(NCCCC[C@H](N[*:1])C(=O)[*:2])C([2H])([2H])[2H]; 2Nal = N[C@@H](Cc1ccc2ccccc2c1)C(=O)O; Lys(iPr) = CC(C)NCCCC[C@H](N)C(=O)O; Lys(Me2) = CN(C)CCCC[C@H](N)C(=O)O; Dap = NC[C@H](N)C(=O)O; Bz = O=C(c1ccccc1)*

Experiments:
CXCR4 [1] = target: T1, CXCR4 (Homo sapiens, UniProt P61073); assay: Human CXCR4/125I-SDF-1α binding inhibition assay; parameters: human leukemia CCRF-CEM cells (ATCC CCL 119) expressing endogenous CXCR4 are employed; endogenous in cells; host or cells: CCRF-CEM (ATCC CCL 119), whole cells; conditions: for Ki: CCRF-CEM cells expressing endogenous CXCR4, Ki calculated from IC50
T1 sequence (P61073 whole entry): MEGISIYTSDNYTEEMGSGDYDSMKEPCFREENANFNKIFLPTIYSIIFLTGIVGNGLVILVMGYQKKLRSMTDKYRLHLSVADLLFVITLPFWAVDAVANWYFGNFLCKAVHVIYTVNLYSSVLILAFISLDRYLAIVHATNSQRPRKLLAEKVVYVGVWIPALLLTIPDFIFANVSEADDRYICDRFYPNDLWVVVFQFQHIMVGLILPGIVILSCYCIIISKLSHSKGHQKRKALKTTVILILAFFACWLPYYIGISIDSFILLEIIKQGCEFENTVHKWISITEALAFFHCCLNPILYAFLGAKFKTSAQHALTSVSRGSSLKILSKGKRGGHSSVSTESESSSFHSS
Procedure: “Ki” values are calculated using IC50 values determined in the CXCR4/^125I-SDF-1α binding assay described below by employing equation 7.22 of Enzymes, A Practical Introduction to Structure, Mechanism, and Data Analysis, Robert A. Copeland, Wiley-VCH, New York, 1996, page 207.
Human CXCR4/^125I-SDF-1α Binding Inhibition Assay
SDF-1 binding to CXCR4 is the first step in activating the CXCR4 intracellular signalling pathway. To determine if a compound can block the interaction of SDF-1 and CXCR4, human leukemia CCRF-CEM cells (ATCC CCL 119) expressing endogenous CXCR4 are employed in an ^125I-labeled SDF-1α binding assay. The assay is performed in a 96-well U-bottom, non-treated polystyrene plate (Corning Incorporated, Costar, No. 3632). The binding assay buffer is prepared with RPMI 1640 medium (Gibco, Grand Island, N.Y.) containing 10 mM HEPES, pH 7.5, and 0.2% BSA. Briefly, 200 μL reaction mixtures containing 300 pM SDF ligand (60 pM ^125I-SDF-1α (Perkin Elmer) and 240 pM cold SDF-1α (R&D Systems), different concentrations of the test compound in assay buffer, 100,000 human CCRF-CEM cells, and 0.5 mg SPA beads (Wheatgerm agglutinin beads; Amersham) are incubated at room temperature for 2 hr. Plates are then counted in a 1450 Microbeta Liquid Scintillation and Luminescence Counter (Wallac) in SPA mode. CXCR4 antagonists decrease the bound radioactivity in this assay in a dose-dependent manner. The inhibitory potency (K1 or IC50) of a test compound is calculated using GraphPad Prism software, based on the dose-dependent decrease of bound radioactivity.

CXCR4 [2] = target: T1, CXCR4; assay: Chemotaxis assay, SDF-1α-induced migration of U937 cells; format: cell-based; parameters: endogenous in cells; conditions: SDF-1α 10 ng/mL
Description: CXCR4/SDF-1 interaction regulates migration (chemotaxis) of cells bearing CXCR4 on their surface. To determine the antagonist and cellular activities of a test compound, a chemotaxis assay using human histiocytic lymphoma U937 cells (ATCC CRL 1593) that express endogenous CXCR4 are employed. Briefly, U937 cells, grown in DMEM medium (Gibco, Grand Island, N.Y.) containing 10% FBS, 1% MEM sodium pyruvate (Gibco), 1% MEM nonessential amino acids (Gibco), and 1% GlutaMAX 1 (Gibco), are harvested and washed once with chemotaxis assay buffer prepared with 1×RPMI medium (Gibco) containing 10 mM HEPES, pH 7.5, and 0.3% BSA. After washing, cells are resuspended in assay buffer at a concentration of 5×10^6 cells/mL. The assay is performed in a 96-well ChemoTx plate (NeuroProbe) according to the manufacturer's directions. […] The plate is then incubated for 60 min at 37° C., and the migrated cells are detected by measuring the absorbance at 492 nm with a Tecan Spectrafluor Plus Microplate Reader (Salzburg, Austria). CXCR4 antagonists inhibit cell migration, reducing the absorbance reading. The inhibitory potency (IC50) of a test compound in this assay is calculated using GraphPad Prism software, based on the dose-dependent decrease of absorbance at 492 nm.

Bioavailability in rats = conditions: rat, in vivo, sc, subcutaneous
Procedure: (§1) Pharmacologic properties such as compound bioavailability, in vivo metabolic stability, and pharmacokinetic/pharmacodynamic properties can be determined by methods well known in the art of drug development. […] For example, in mice, the half-life (T½) of the compound of Example 58 is about 3 hours. With respect to pharmacodynamic properties, preferred compounds induce prolonged neutrophil and white blood cell mobilization in mice. For example, the compound of Example 25 induces a significant increase of neutrophils and white blood cells in peripheral blood for at least 6 hours after single dose subcutaneous administration at 5 mg/kg in mice.

[3] = In vivo metabolic stability in monkey; conditions: up to 24 hours after administration
Procedure: as §1

[4] = target: T2, human chemokine receptor CXCR2 (Homo sapiens, UniProt P25025); assay: Chemokine receptor binding selectivity assay, ligand binding
T2 sequence (P25025 1-360): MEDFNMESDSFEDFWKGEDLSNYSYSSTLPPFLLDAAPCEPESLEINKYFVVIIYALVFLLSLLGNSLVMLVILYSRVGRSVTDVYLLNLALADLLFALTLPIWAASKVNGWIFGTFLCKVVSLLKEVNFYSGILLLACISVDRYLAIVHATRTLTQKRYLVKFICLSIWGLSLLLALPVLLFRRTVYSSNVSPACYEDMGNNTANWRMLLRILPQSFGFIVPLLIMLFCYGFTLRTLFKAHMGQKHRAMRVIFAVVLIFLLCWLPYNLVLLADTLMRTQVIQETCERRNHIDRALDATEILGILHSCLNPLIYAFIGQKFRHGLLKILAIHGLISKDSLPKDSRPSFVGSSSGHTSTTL
Description: Chemokine Receptor Binding Selectivity Assays
The binding selectivity of the present compounds for the CXCR4 receptor compared to that for other chemokine receptors, such as human CCR1, CCR2, CXCR2, or CXCR3, and other G-protein-coupled receptors, can be assessed in cells transfected with nucleic acid encoding and expressing such receptors, or in cells in which such receptors are endogenously expressed. Whole cells or membrane fragments can be used to assess competition of test compounds with the respective ligands for these receptors in a manner similar to that described above for the CXCR4/^125I-SDF-1α binding inhibition assay.

[5] = In vivo metabolic stability in dog; conditions: up to 24 hours after administration
Procedure: as §1

[6] = test system: neutrophils and white blood cells in peripheral blood; assay: Compound-induced white blood cell and neutrophil mobilization in C57BL/6 mice; format: in vivo, mouse; conditions: 5 mg/kg
Description: Compound-Induced White Blood Cell and Neutrophil Mobilization in C57BL/6 Mice
Stem cells within the bone marrow actively maintain continuous production of all mature blood cell lineages throughout life. Bone marrow is the primary site for white blood cell (WBC)/neutrophil production and release into the circulation. The CXCR4/SDF-1 axis appears to be critical for the retention and release of WBCs, neutrophils, and hematopoietic progenitor cells in the bone marrow, and interruption of CXCR4/SDF-1 interaction in bone marrow leads to an increase of these cells in peripheral blood. A short-term mouse WBC/neutrophil mobilization model can be used to determine the in vivo target-modulating activity of a test compound. Briefly, pathogen-free 5-6 week old female C57BL/6 mice (Taconic) are housed for at least one week prior to assay. Animals are allowed continuous access to sterilized rodent chow and acidified water. Groups of 5 mice are injected subcutaneously with test compounds in saline, or with saline control, and then sacrificed by CO2 asphyxiation and cervical dislocation at various time points post compound administration. Peripheral blood is collected by cardiac puncture using EDTA-coated syringes and tubes. […] Total WBCs, neutrophils, and lymphocytes in the peripheral blood are recorded. […]

[7] = test system: human non-Hodgkin's lymphoma Namalwa cells; assay: Anti-tumor activity in a SCID/Namalwa xenograft model; format: in vivo, mouse; conditions: 1 mg/kg BID, subcutaneous
Description: Anti-Tumor Activity in a SCID/Namalwa Xenograft Model
SDF-1/CXCR4 interaction appears to play an important role in multiple stages of tumorigenesis, including tumor growth, invasion, angiogenesis, and metastasis. To evaluate in vivo anti-tumor activity of a test compound, a tumor xenograft model using NOD/SCID mice (Jackson Laboratories) and human non-Hodgkin's lymphoma Namalwa cells (ATCC CRL 1432) are employed. Briefly, 200,000 Namalwa cells mixed with matrigel (1:1) are implanted subcutaneously into the rear flank of the animals. The implanted tumor cells grow as solid tumors, the dimensions of which can be continuously monitored and measured using a caliper. To determine the in vivo efficacy of a test compound in this model, one can treat animals (10/group) with different doses of test compounds dissolved in saline or PBS, beginning 48 hours post tumor cell implantation. Compounds are dosed subcutaneously, and tumor volume and body weight are determined every 2 or 3 days. Studies generally last 3-4 weeks, depending on tumor growth. The anti-tumor growth activity of a test compound is determined by the percent reduction in tumor volume in treatment groups compared to tumor volume in control groups treated with vehicle alone.

Ki (CXCR4 [1]): 3.45 nM
Compound: CC(=O)N[C@H]1CNC(=O)CC[C@@H](C(=O)N[C@@H](CCCNC(=N)N)C(N)=O)NC(=O)CNC(=O)[C@H](Cc2ccc3ccccc3c2)NC(=O)[C@@H](CCCNC(=N)N)NC(=O)[C@H](CCCNC(=N)N)NC(=O)[C@H](Cc2ccc(O)cc2)NC1=O [Example 1, Ac-cyclo[Dap-Tyr-Arg-DArg-2Nal-Gly-Glu]-Arg-NH2] (Ac-[Dap]YR[dR][2Nal]GER-NH2; lactam 1-7)

IC50 (CXCR4 [2]): 2.05 nM
Compound: CN(C)CCCC[C@@H]1NC(=O)[C@H](Cc2ccc(O)cc2)NC(=O)[C@@H](NC(=O)c2ccccc2)CC(=O)NC[C@@H](C(=O)N[C@@H](CCCNC(=N)N)C(N)=O)NC(=O)CNC(=O)[C@H](Cc2ccc3ccccc3c2)NC(=O)[C@@H](CCCNC(=N)N)NC1=O [Example 19, Bz-cyclo[Asp-Tyr-Lys(Me2)-DArg-2Nal-Gly-Dap]-Arg-NH2] (Bz-DY[Lys(Me2)][dR][2Nal]G[Dap]R-NH2; lactam 1-7)

bioavailability (Bioavailability in rats): ~100%
Compound: CCNC(=O)[C@H](CCCNC(=N)N)NC(=O)[C@H]1CCC(=O)NCC(=O)N[C@@H](Cc2ccc(O)cc2)C(=O)N[C@@H](CCCCNC(C)C)C(=O)N[C@H](CCCNC(=N)N)C(=O)N[C@@H](Cc2ccc3ccccc3c2)C(=O)NCC(=O)N1 [Example 44, cyclo[Gly-Tyr-Lys(iPr)-DArg-2Nal-Gly-DGlu]-Arg-NHEt] (GY[Lys(iPr)][dR][2Nal]G[dE]R-NHEt; lactam N-7)

Ki (CXCR4 [1]): 0.285 nM
IC50 (CXCR4 [2]): 0.171 nM
Compound: CC(C)NCCCC[C@@H]1NC(=O)[C@H](Cc2ccc(O)cc2)NC(=O)[C@@H](C)NC(=O)CC[C@H](C(N)=O)NC(=O)CNC(=O)[C@H](Cc2ccc3ccccc3c2)NC(=O)[C@@H](CCCNC(=N)N)NC1=O [Example 50, cyclo[DAla-Tyr-Lys(iPr)-DArg-2Nal-Gly-DGlu]-NH2] ([dA]Y[Lys(iPr)][dR][2Nal]G[dE]-NH2; lactam N-7)

metabolites in plasma and urine [3]: no detectable metabolites
Ki [4]: > 73000 nM
metabolites in plasma and urine [5]: no detectable metabolites
Compound: CC(C)NCCCC[C@H](NC(=O)[C@H]1CCC(=O)N[C@@H](Cc2ccccc2)C(=O)N[C@@H](Cc2ccc(O)cc2)C(=O)N[C@@H](CCCCNC(C)C)C(=O)N[C@H](CCCNC(=N)N)C(=O)N[C@@H](Cc2ccc3ccccc3c2)C(=O)NCC(=O)N1)C(N)=O [Example 57a, cyclo[Phe-Tyr-Lys(iPr)-DArg-2Nal-Gly-DGlu]-Lys (iPr)-NH2.acetic acid salt] (FY[Lys(iPr)][dR][2Nal]G[dE][Lys(iPr)]-NH2; lactam N-7)

Ki (CXCR4 [1]): 0.096 nM
Compound: CC(C)NCCCC[C@@H]1NC(=O)[C@H](Cc2ccc(O)cc2)NC(=O)CNC(=O)CC[C@H](C(=O)N[C@@H](CCCCNC(C)C)C(=O)NCC(=O)N[C@@H](Cc2ccc3ccccc3c2)C(N)=O)NC(=O)CNC(=O)[C@H](Cc2ccc3ccccc3c2)NC(=O)[C@@H](CCCNC(=N)N)NC1=O [Example 75, cyclo[Gly-Tyr-Lys(iPr)-DArg-2Nal-Gly-DGlu]-Lys (iPr)-Gly-2Nal-NH2] (GY[Lys(iPr)][dR][2Nal]G[dE][Lys(iPr)]G[2Nal]-NH2; lactam N-7)

Compound: cyclo[Gly-Tyr-Lys(iPr)-DArg-2Nal-Gly-DGlu]-Arg-NH2 (GY[Lys(iPr)][dR][2Nal]G[dE]R-NH2; lactam N-7) [Example 25]
duration of significant increase of neutrophils and white blood cells in peripheral blood ([6]; single dose subcutaneous, mice): at least 6 hours

Compound: cyclo[Gly-Tyr-Lys(iPr)-DArg-2Nal-Gly-DGlu]-NH2 (GY[Lys(iPr)][dR][2Nal]G[dE]-NH2; lactam N-7; SMILES CC(C)NCCCC[C@@H]1NC(=O)[C@H](Cc2ccc(O)cc2)NC(=O)CNC(=O)CC[C@H](C(N)=O)NC(=O)CNC(=O)[C@H](Cc2ccc3ccccc3c2)NC(=O)[C@@H](CCCNC(=N)N)NC1=O) [Example 26]
tumor growth inhibition [7]: significantly inhibit tumor growth

Compound: cyclo[Gly-Tyr-Lys(iPr)-DArg-2Nal-Gly-Glu]-Arg-NH2 (GY[Lys(iPr)][dR][2Nal]GER-NH2; lactam N-7) [Example 39]
average neutrophil ratio (neutrophil increase in treatment group vs. saline control group) ([6]; 3 hours after compound administration, subcutaneous): 4.6

target receptor affinity compared to the non-labeled counterpart (CXCR4 [1]; deuterium-labeled peptide vs non-labeled counterpart): identical target receptor affinity
Compound: cyclo[Phe-Tyr-Lys(iPr-d6)-DArg-2Nal-Gly-DGlu]-Lys(iPr-d6)-NH2 (FY[Lys(iPr-d6)][dR][2Nal]G[dE][Lys(iPr-d6)]-NH2; lactam N-7) [Example 89]
